# What was measured:
# [1] = biological target: T1, IRAK4 (Homo sapiens, UniProt Q9NWZ3); experiment: Z'-LYTE assay (ThermoFisher) against IRAK4; format: biochemical; details: Ser/Thr 07 substrate, 60 minutes at room temperature
# T1 sequence (Q9NWZ3 1-460): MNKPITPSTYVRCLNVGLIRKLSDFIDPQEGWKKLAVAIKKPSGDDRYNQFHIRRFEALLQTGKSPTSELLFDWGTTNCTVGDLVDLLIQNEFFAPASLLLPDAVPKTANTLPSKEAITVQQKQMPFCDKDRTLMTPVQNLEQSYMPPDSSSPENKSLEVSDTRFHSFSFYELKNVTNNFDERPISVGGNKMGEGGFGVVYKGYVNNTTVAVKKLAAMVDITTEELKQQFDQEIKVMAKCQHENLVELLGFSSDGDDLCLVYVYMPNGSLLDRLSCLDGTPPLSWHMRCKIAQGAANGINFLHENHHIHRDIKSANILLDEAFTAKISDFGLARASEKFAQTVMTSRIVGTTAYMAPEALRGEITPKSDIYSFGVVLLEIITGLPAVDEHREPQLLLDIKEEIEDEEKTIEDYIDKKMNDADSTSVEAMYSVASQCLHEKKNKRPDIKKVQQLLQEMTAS
# Procedure: To measure the IC50 values of compounds herein against IRAK4, a Z′-LYTE assay (ThermoFisher) was used. Briefly, 2.5 μL of different concentrations of the compounds in 1% DMSO were added to 2.4 μL kinase buffer (50 mM HEPES pH 7.5, 0.01% BRIJ-35, 10 mM MgCl2, 1 mM EGTA) in each well of a 384-well plate (Corning Cat. #3676). 5 μL of 2× IRAK4/Ser/Thr 07 mixture (prepared in 50 mM HEPES pH 7.5, 0.01% BRIJ-35, 10 mM MnCl2, 2 mM DTT, and 0.02% NaN3) and 2.5 μL of 4× ATP solution (4× ATP, 50 mM HEPES, pH 7.5, 0.01% BRIJ-35, 10 mM MgCl2, 1 mM EGTA) were added to each well. The plate was shaken for 30 seconds, and then incubated at room temperature for 60 minutes. 5 μL of a 1:100000 dilution of Development Reagent A was added to each well. The plate was shaken for 30 seconds and incubated for 60 minutes at room temperature. The plate was subsequently read on a fluorescence plate reader, and the emissions ratio was calculated to determine the ratio of Ser/Thr 07 phosphorylated by the reaction. Emissions Ratio=Coumarin Emission (443 nm)/Flourescein Emission (520 nm).
# [2] = biological target: IRAK1 (Homo sapiens, UniProt P51617); experiment: Adapta Universal Kinase Assay (ThermoFisher) against IRAK1; format: biochemical; details: Histone H3 (1-20) peptide substrate, 60 minutes at room temperature
# Chain of IRAK1 (P51617 whole entry): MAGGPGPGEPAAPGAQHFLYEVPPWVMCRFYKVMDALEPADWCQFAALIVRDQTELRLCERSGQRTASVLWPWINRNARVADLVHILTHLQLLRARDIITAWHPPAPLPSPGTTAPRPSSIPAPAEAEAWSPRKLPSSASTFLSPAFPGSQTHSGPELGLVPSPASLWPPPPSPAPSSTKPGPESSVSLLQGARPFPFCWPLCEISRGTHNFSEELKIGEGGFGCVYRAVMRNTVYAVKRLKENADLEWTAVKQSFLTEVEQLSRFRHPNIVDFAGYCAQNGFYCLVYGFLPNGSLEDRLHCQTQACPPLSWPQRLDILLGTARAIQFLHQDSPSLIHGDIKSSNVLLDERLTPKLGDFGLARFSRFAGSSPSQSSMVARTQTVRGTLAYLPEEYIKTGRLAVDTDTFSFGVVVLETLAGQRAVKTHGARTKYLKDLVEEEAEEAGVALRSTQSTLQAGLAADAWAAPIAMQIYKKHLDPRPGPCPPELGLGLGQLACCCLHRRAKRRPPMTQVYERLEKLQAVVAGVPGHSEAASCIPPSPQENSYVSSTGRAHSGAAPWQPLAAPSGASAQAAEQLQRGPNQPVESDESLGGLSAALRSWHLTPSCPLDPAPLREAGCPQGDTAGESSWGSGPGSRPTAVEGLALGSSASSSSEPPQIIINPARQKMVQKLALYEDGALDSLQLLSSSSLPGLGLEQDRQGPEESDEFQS
# Procedure: To measure the IC50 values of the compounds herein against IRAK1, the Adapta Universal Kinase Assay (ThermoFisher) was used. Briefly, 100 nL of different concentrations of the compounds in 100% DMSO were added to each well of a 384-well plate (Corning Cat. #4512). 2.4 μL of 30 mM HEPES, 2.5 μL of 4× ATP solution (in water), and 5 μL of 2× IRAK1/Histone H3 (1-20) peptide mixture (prepared in 50 mM HEPES pH 7.5, 0.01% BRIJ-35, 10 mM MgCl2, 1 mM EGTA) were added to each well. The plate was shaken for 30 seconds and centrifuged for 1 minute at 1000×g. The plate was then incubated at room temperature for 60 minutes. 5 μL of Detection Mix was added to each well. The plate was shaken for 30 seconds and centrifuged for 1 minute at 1000×g. The plate was then incubated at room temperature for 60 minutes. The plate was subsequently read on a fluorescence plate reader, and the emissions ratio was calculated to determine the ratio of ATP to ADP. Emissions Ratio=AF647 Emission (665 nm)/Europium Emission (615 nm).
compound,measurement,setting,value
"C=CC(=O)N1CCC[C@H](c2nc(-c3ccc(NC(=O)c4cccc(-c5ccn[nH]5)n4)nc3)no2)C1 [Compound 001, (S)-N-(5-(5-(1-acryloylpiperidin-3-yl)-1,2,4-oxadiazol-3-yl)pyridin-2-yl)-6-(1H-pyrazol-5-yl)picolinamide]",IC50,[1],> 10000 nM
same,IC50,[2],19.8 nM
"C=CC(=O)N1CC(c2nc(-c3ccc(NC(=O)c4cccc(-c5ccn[nH]5)n4)nc3)no2)CC(F)(F)C1 (centres unmarked) [Compound 002, N-(5-(5-(1-acryloyl-5,5-difluoropiperidin-3-yl)-1,2,4-oxadiazol-3-yl)pyridin-2-yl)-6-(1H-pyrazol-5-yl)picolinamide]",IC50,[1],> 10000 nM
same,IC50,[2],6.42 nM
"C=CC(=O)N1CCC[C@H](c2nnc(-c3ccc(NC(=O)c4cccc(-c5ccn[nH]5)n4)nc3)o2)C1 [Compound 005, (S)-N-(5-(5-(1-acryloylpiperidin-3-yl)-1,3,4-oxadiazol-2-yl)pyridin-2-yl)-6-(1H-pyrazol-5-yl)picolinamide]",IC50,[1],9340 nM
same,IC50,[2],96.1 nM
"C=CC(=O)N1CCC[C@H](c2nc(-c3ccc(NC(=O)c4cccc(-c5[nH]ncc5C)n4)nc3)no2)C1 [Compound 006, (S)-N-(5-(5-(1-acryloylpiperidin-3-yl)-1,2,4-oxadiazol-3-yl)pyridin-2-yl)-6-(4-methyl-1H-pyrazol-5-yl)picolinamide]",IC50,[1],> 10000 nM
same,IC50,[2],8.21 nM
"C=CC(=O)N1CC(c2nc(-c3ccc(NC(=O)c4cccc(-c5[nH]ncc5C)n4)nc3)no2)CC(F)(F)C1 (centres unmarked) [Compound 007, N-(5-(5-(1-acryloyl-5,5-difluoropiperidin-3-yl)-1,2,4-oxadiazol-3-yl)pyridin-2-yl)-6-(4-methyl-1H-pyrazol-5-yl)picolinamide]",IC50,[1],> 10000 nM
same,IC50,[2],3.98 nM
"C=CC(=O)N1CC(c2nc(-c3ccc(NC(=O)c4cccc(-c5[nH]ncc5Cl)n4)nc3)no2)CC(F)(F)C1 (centres unmarked) [Compound 008, N-(5-(5-(1-acryloyl-5,5-difluoropiperidin-3-yl)-1,2,4-oxadiazol-3-yl)pyridin-2-yl)-6-(4-chloro-1H-pyrazol-5-yl)picolinamide]",IC50,[1],> 10000 nM
same,IC50,[2],5.11 nM
"C=CC(=O)N1CC(C(F)(F)F)C[C@H](c2nc(-c3ccc(NC(=O)c4cccc(-c5ccn[nH]5)n4)nc3)no2)C1 (stereo partly drawn) [Compound 009, N-(5-(5-((3S)-1-acryloyl-5-(trifluoromethyl)piperidin-3-yl)-1,2,4-oxadiazol-3-yl)pyridin-2-yl)-6-(1H-pyrazol-5-yl)picolinamide]",IC50,[1],> 10000 nM
same,IC50,[2],3.98 nM
"C=CC(=O)N1CC2CC1[C@@H](c1nc(-c3ccc(NC(=O)c4cccc(-c5[nH]ncc5C)n4)nc3)no1)C2 (stereo partly drawn) [Compound 010, N-(5-(5-((6S)-2-acryloyl-2-azabicyclo[2.2.1]heptan-6-yl)-1,2,4-oxadiazol-3-yl)pyridin-2-yl)-6-(4-methyl-1H-pyrazol-5-yl)picolinamide]",IC50,[1],> 10000 nM
same,IC50,[2],5.11 nM
"C=CC(=O)N1CCC[C@H](c2nc(-c3ccc(NC(=O)c4cccc(-c5ccnn5CC5(C(F)(F)F)CC5)n4)nc3)no2)C1 [Compound 017, (S)-N-(5-(5-(1-acryloylpiperidin-3-yl)-1,2,4-oxadiazol-3-yl)pyridin-2-yl)-6-(1-((1-(trifluoromethyl)cyclopropyl)methyl)-1H-pyrazol-5-yl)picolinamide]",IC50,[1],> 10000 nM
same,IC50,[2],> 10000 nM
C=CC(=O)N1CCC[C@H](C(=O)Nc2ccc(-c3nnc(-c4cccc(-c5ccn[nH]5)n4)[nH]3)nc2)C1 [Compound 018],IC50,[1],125 nM
same,IC50,[2],3.95 nM
C=CC(=O)N1CCC[C@H](C(=O)Nc2ccc(-c3nnc(-c4cccc(-c5ccn[nH]5)n4)o3)nc2)C1 [Compound 019],IC50,[1],331 nM
same,IC50,[2],5 nM
C=CC(=O)N1CCC[C@H](C(=O)Nc2ccc(-c3nc(-c4cccc(-c5ccn[nH]5)n4)no3)nc2)C1 [Compound 020],IC50,[1],333 nM
same,IC50,[2],2.6 nM
C=CC(=O)N1CCC[C@H](C(=O)Nc2ccc(-c3ncc(-c4cccc(-c5ccn[nH]5)n4)o3)nc2)C1 [Compound 022],IC50,[1],376 nM
same,IC50,[2],5.35 nM
C=CC(=O)N1CCC[C@H](C(=O)Nc2ccc(-c3ncc(-c4cccc(-c5ccn[nH]5)n4)s3)nc2)C1 [Compound 023],IC50,[1],244 nM
same,IC50,[2],6.07 nM
C=CC(=O)N1CCC[C@H](C(=O)Nc2ccc(-c3ncc(-c4cccc(-c5ccn[nH]5)n4)[nH]3)nc2)C1 [Compound 024],IC50,[1],474 nM
same,IC50,[2],6.54 nM
C=CC(=O)N1CCC[C@H](C(=O)Nc2ccc(Nc3nsc4ccc(-c5ccn[nH]5)nc34)cc2)C1 [Compound 025],IC50,[1],353 nM
same,IC50,[2],2.22 nM
C=CC(=O)N1CCC[C@H](C(=O)Nc2ccc(Nc3n[nH]c4ccc(-c5ccn[nH]5)nc34)cc2)C1 [Compound 026],IC50,[1],365 nM
same,IC50,[2],6.86 nM
"C=CC(=O)N1CCC[C@H](c2nc(-c3ccc(NC(=O)c4cccc(-c5ccn[nH]5)n4)cn3)no2)C1 [Compound 061, (S)-N-(6-(5-(1-acryloylpiperidin-3-yl)-1,2,4-oxadiazol-3-yl)pyridin-3-yl)-6-(1H-pyrazol-5-yl)picolinamide]",IC50,[1],> 10000 nM
same,IC50,[2],84.3 nM
C=CC(=O)N1C[C@@H](c2nc(-c3ccc(NC(=O)c4cccc(-c5ccn[nH]5)n4)nc3)no2)C[C@@H](C(F)(F)F)C1 [Compound 062],IC50,[1],> 10000 nM
same,IC50,[2],94.2 nM
C=CC(=O)N1C[C@@H](c2nc(-c3ccc(NC(=O)c4cccc(-c5ccn[nH]5)n4)nc3)no2)CC(F)(F)C1 [Compound 063],IC50,[1],> 10000 nM
same,IC50,[2],14.8 nM
C=CC(=O)N1C[C@@H](c2nc(-c3ccc(NC(=O)c4cccc(-c5ccn[nH]5)n4)nc3)no2)C[C@H](C(F)(F)F)C1 [Compound 064],IC50,[1],> 10000 nM
same,IC50,[2],30.4 nM
"C=CC(=O)N1CCC[C@H](C(=O)Nc2ccc(NC(=O)c3csc(-c4ccn[nH]4)n3)nc2)C1 [Compound 068, (S)-N-(5-(1-acryloylpiperidine-3-carboxamido)pyridin-2-yl)-2-(1H-pyrazol-5-yl)thiazole-4-carboxamide]",IC50,[1],5760 nM
same,IC50,[2],324 nM
"C=CC(=O)N1CCC[C@H](C(=O)Nc2ccc(-c3cnc(-c4cccc(-c5ccn[nH]5)n4)[nH]3)cc2)C1 [Compound 070, (S)-N-(4-(2-(6-(1H-pyrazol-5-yl)pyridin-2-yl)-1H-imidazol-5-yl)phenyl)-1-acryloylpiperidine-3-carboxamide]",IC50,[1],3330 nM
same,IC50,[2],1200 nM
"C=CC(=O)N1CCC[C@H](C(=O)Nc2ccc(NC(=O)c3csc(-c4ccn[nH]4)n3)cc2)C1 [Compound 071, (S)-N-(4-(1-acryloylpiperidine-3-carboxamido)phenyl)-2-(1H-pyrazol-5-yl)thiazole-4-carboxamide]",IC50,[1],8220 nM
same,IC50,[2],609 nM
C=CC(=O)N1CCC[C@H](c2nc(-c3ccc(NC(=O)c4cccc(-c5ccn[nH]5)n4)cc3)no2)C1 [Compound 075],IC50,[1],> 10000 nM
same,IC50,[2],36.6 nM
"C=CC(=O)N1CCC[C@H](c2nc(-c3ccc(NC(=O)c4cccc(-c5ccn[nH]5)n4)c(F)c3)no2)C1 [Compound 076, (S)-N-(4-(5-(1-acryloylpiperidin-3-yl)-1,2,4-oxadiazol-3-yl)-2-fluorophenyl)-6-(1H-pyrazol-5-yl)picolinamide]",IC50,[1],> 10000 nM
same,IC50,[2],16.4 nM
C=CC(=O)N1CC2(CC(c3nc(-c4ccc(NC(=O)c5cccc(-c6ccn[nH]6)n5)cc4)no3)C2)C1 [Compound 077],IC50,[1],> 10000 nM
C=CC(=O)N1C[C@@H](c2nc(-c3ccc(NC(=O)c4cccc(-c5ccn[nH]5)n4)cc3)no2)C[C@@H](C(F)(F)F)C1 [Compound 078],IC50,[1],> 10000 nM
same,IC50,[2],521 nM
C=CC(=O)N1CC2(CC(c3nc(-c4ccc(NC(=O)c5cccc(-c6ccn[nH]6)n5)cc4)no3)C2)C1 [Compound 091],IC50,[1],4970 nM

# — patent US20260345574A1, “POTENT AND SELECTIVE IRREVERSIBLE INHIBITORS OF IRAK1” (Dana-Farber Cancer Institute, Inc., priority 2022, published 2026)
